In patent publication US11612661B2 (priority 2019, dated 2023):
Bridge positions count the residues as written; N and C are the ends. Square brackets hold non-standard residues; d marks the D form. Triazole bridges read from a SMILES are 1,4-linked. Peptide text beside a SMILES is read from it. * marks the point of attachment. Tyr(3-I) = N[C@@H](Cc1ccc(O)c(I)c1)C(=O)O; Orn(N3) = [N-]=[N+]=NCCC[C@H](N)C(=O)O; NMeY = CN[C@@H](Cc1ccc(O)cc1)C(=O)O; NMeR = CN[C@@H](CCCNC(=N)N)C(=O)O; X1 = O=C(O)C[C@@H](N*)c1ccc(O)cc1; Cit = NC(=O)NCCC[C@H](N)C(=O)O; Pra = C#CC[C@H](N)C(=O)O; Sar = CNCC(=O)O

Tests used:
rat α9α10 nAChR = rat α9α10 nAChR (Rattus norvegicus, UniProt P43144+Q9JLB5); test: cell-based; format: cell-based; settings: for IC50: α9α10 nAChR IC50 (nM) Rat
Sequence of rat α9α10 nAChR (P43144 26-479 limits assumed): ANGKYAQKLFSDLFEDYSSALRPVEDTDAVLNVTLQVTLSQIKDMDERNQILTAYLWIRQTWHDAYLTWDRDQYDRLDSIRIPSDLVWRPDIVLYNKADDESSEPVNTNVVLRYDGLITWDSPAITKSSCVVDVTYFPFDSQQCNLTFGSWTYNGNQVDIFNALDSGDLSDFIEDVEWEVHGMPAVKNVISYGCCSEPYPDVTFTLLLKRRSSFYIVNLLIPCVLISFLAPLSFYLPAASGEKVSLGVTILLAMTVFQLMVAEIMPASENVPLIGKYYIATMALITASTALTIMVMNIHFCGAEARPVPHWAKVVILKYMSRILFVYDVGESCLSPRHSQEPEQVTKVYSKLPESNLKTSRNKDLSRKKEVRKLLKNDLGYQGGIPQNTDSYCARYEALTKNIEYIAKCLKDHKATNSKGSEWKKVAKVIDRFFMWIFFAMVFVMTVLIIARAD
Sequence of rat α9α10 nAChR (Q9JLB5 25-447 limits assumed): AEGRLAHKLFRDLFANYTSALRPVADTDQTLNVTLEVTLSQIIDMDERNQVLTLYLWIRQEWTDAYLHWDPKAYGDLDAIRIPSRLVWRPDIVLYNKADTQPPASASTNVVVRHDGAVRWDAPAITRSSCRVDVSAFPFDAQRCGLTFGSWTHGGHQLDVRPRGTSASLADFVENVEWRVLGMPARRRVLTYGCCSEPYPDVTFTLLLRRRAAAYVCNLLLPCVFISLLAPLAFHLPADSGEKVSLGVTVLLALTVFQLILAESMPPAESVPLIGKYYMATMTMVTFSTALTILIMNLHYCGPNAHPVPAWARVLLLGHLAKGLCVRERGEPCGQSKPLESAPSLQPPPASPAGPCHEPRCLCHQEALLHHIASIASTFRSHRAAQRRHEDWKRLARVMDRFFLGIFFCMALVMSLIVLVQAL

human α9α10 nAChR = human α9α10 nAChR (Homo sapiens, UniProt Q9GZZ6+Q9UGM1); test: cell-based; format: cell-based
Sequence of human α9α10 nAChR (Q9UGM1 26-479 limits assumed): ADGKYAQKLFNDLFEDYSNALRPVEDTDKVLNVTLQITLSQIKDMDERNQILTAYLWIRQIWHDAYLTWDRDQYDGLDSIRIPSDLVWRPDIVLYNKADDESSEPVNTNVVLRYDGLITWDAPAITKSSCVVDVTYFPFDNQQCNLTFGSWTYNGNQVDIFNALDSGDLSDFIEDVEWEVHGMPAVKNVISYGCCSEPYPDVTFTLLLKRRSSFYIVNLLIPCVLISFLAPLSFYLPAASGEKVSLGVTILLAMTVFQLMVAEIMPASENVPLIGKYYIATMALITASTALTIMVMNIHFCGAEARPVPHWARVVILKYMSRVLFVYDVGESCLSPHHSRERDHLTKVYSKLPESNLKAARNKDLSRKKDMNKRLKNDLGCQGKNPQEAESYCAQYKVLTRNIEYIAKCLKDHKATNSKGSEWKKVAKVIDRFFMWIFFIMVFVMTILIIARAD
Sequence of human α9α10 nAChR (Q9GZZ6 25-450 limits assumed): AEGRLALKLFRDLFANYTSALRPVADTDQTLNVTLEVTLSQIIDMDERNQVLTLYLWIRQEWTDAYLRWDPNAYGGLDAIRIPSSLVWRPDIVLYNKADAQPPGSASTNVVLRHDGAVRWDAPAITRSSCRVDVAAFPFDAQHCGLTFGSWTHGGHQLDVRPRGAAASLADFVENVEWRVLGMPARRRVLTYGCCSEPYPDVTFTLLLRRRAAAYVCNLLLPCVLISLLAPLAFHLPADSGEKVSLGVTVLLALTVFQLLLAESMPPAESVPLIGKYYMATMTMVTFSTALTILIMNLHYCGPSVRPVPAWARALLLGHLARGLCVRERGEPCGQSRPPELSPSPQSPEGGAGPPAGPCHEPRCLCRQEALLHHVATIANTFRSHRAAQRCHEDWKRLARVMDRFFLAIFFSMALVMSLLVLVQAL

Row | Structure (SMILES) | IC50 (rat α9α10 nAChR) | IC50 (human α9α10 nAChR) | Loss in activity on the rat channel on deletion of amino acid 13 (1a vs 1q) (rat α9α10 nAChR) | Loss of activity on the human channel on deletion of amino acid 13 (1a vs 1q) (human α9α10 nAChR)
1 | C[C@@H](O)[C@@H]1NC(=O)[C@@H]2CCCc3cn(nn3)C[C@@H](C(=O)N[C@@H](Cc3ccc(O)cc3)C(=O)O)NC(=O)[C@H](CCC(N)=O)NC(=O)[C@H](Cc3c[nH]c4ccccc34)NC(=O)[C@H](CCCNC(N)=O)NC(=O)[C@H](CSSC[C@H](NC(=O)CN)C(=O)N2)NC(=O)[C@H](CCCNC(=N)N)NC(=O)[C@@H]2CCCN2C(=O)[C@H](CC(=O)O)NC1=O [Ij, L-tyrosine, glycyl-L-cysteinyl-(2S)-2-aminopentanoyl-L-alanyl-L-threonyl-L-α-aspartyl-L-prolyl-L-arginyl-L-cysteinyl-N5-(aminocarbonyl)-L-ornithyl-L-3-iodotyrosyl-L-glutaminyl-L-alanyl-cyclic (2→8)-disulfide-cyclic 3^5,12^3-(1H-1,2,3-triazole-4,1-diyl)] | 69 ± 8.5 nM | 0.152 ± 0.071 µM |  | 
2 | C[C@@H](O)[C@@H]1NC(=O)[C@@H]2Cn3cc(nn3)CCC[C@@H](C(=O)N[C@@H](Cc3ccc(O)cc3)C(=O)O)NC(=O)[C@H](CCC(N)=O)NC(=O)[C@H](Cc3c[nH]c4ccccc34)NC(=O)[C@H](CCCNC(N)=O)NC(=O)[C@H](CSSC[C@H](NC(=O)CN)C(=O)N2)NC(=O)[C@H](CCCNC(=N)N)NC(=O)[C@@H]2CCCN2C(=O)[C@H](CC(=O)O)NC1=O [Ik, L-tyrosine, glycyl-L-cysteinyl-L-alanyl-L-threonyl-L-α-aspartyl-L-prolyl-L-arginyl-L-cysteinyl-N5-(aminocarbonyl)-L-ornithyl-L-tryptophyl-L-glutaminyl-L-(2S)-2-aminopentanoyl-cyclic (2→8)-disulfide-cyclic 3^3,12^5-(1H-1,2,3-triazole-1,4-diyl)] | 9.5 ± 1.3 nM | 0.0166 ± 0.0011 µM |  | 
3 | C[C@@H](O)[C@@H]1NC(=O)[C@@H]2Cc3cn(nn3)CCC[C@@H](C(=O)N[C@@H](Cc3ccc(O)cc3)C(=O)N(C)CC(=O)O)NC(=O)[C@H](CCC(N)=O)NC(=O)[C@H](Cc3c[nH]c4ccccc34)NC(=O)[C@H](CCCNC(N)=O)NC(=O)[C@H](CSSC[C@H](NC(=O)CN)C(=O)N2)NC(=O)[C@H](CCCNC(=N)N)NC(=O)[C@@H]2CCCN2C(=O)[C@H](CC(=O)O)NC1=O [In, glycine, glycyl-L-cysteinyl-L-alanyl-L-threonyl-L-α-aspartyl-L-prolyl-L-arginyl-L-cysteinyl-N5-(aminocarbonyl)-L-ornithyl-L-tryptophyl-L-glutaminyl-L-norvalyl-L-tyrosyl-N-methyl-cyclic (2→8)-disulfide-cyclic 3^3,12^5-(1H-1,2,3-triazole-4,1-diyl)] (H-GC[Pra]TDPRC[Cit]WQ[Orn(N3)]Y[Sar]-OH; disulfide 2-8; triazole 3-12) | ≤ 10 nM | 0.037 ± 0.015 µM |  | 
4 | C[C@@H](O)[C@@H]1NC(=O)[C@@H]2Cc3cn(nn3)CCC[C@@H](C(=O)N[C@@H](Cc3ccc(O)cc3)C(=O)N[C@H](Cc3ccc(O)cc3)C(=O)O)NC(=O)[C@H](CCC(N)=O)NC(=O)[C@H](Cc3c[nH]c4ccccc34)NC(=O)[C@H](CCCNC(N)=O)NC(=O)[C@H](CSSC[C@H](NC(=O)CN)C(=O)N2)NC(=O)[C@H](CCCNC(=N)N)NC(=O)[C@@H]2CCCN2C(=O)[C@H](CC(=O)O)NC1=O [Io, D-tyrosine, glycyl-L-cysteinyl-L-alanyl-L-threonyl-L-α-aspartyl-L-prolyl-L-arginyl-L-cysteinyl-N5-(aminocarbonyl)-L-ornithyl-L-tryptophyl-L-glutaminyl-L-norvalyl-L-tyrosyl-cyclic (2→8)-disulfide-cyclic 3^3,12^5-(1H-1,2,3-triazole-4,1-diyl)] (H-GC[Pra]TDPRC[Cit]WQ[Orn(N3)]Y[dY]-OH; disulfide 2-8; triazole 3-12) | ≤ 10 nM | 0.059 µM |  | 
5 | C[C@@H](O)[C@@H]1NC(=O)[C@@H]2Cc3cn(nn3)CCC[C@@H](C(=O)N[C@@H](Cc3ccc(O)cc3)C(=O)N(C)[C@@H](Cc3ccc(O)cc3)C(=O)O)NC(=O)[C@H](CCC(N)=O)NC(=O)[C@H](Cc3c[nH]c4ccccc34)NC(=O)[C@H](CCCNC(N)=O)NC(=O)[C@H](CSSC[C@H](NC(=O)CN)C(=O)N2)NC(=O)[C@H](CCCNC(=N)N)NC(=O)[C@@H]2CCCN2C(=O)[C@H](CC(=O)O)NC1=O [Ip, L-tyrosine, glycyl-L-cysteinyl-L-alanyl-L-threonyl-L-α-aspartyl-L-prolyl-L-arginyl-L-cysteinyl-N5-(aminocarbonyl)-L-ornithyl-L-tryptophyl-L-glutaminyl-L-norvalyl-L-tyrosyl-N-methyl-cyclic (2→8)-disulfide-cyclic 3^3,12^5-(1H-1,2,3-triazole-4,1-diyl)] (H-GC[Pra]TDPRC[Cit]WQ[Orn(N3)]Y[NMeY]-OH; disulfide 2-8; triazole 3-12) | ≤ 10 nM | 0.026 ± 0.0014 µM |  | 
6 | C[C@@H](O)[C@@H]1NC(=O)[C@@H]2Cc3cn(nn3)CCC[C@@H](C(=O)O)NC(=O)[C@H](CCC(N)=O)NC(=O)[C@H](Cc3c[nH]c4ccccc34)NC(=O)[C@H](CCCNC(N)=O)NC(=O)[C@H](CSSC[C@H](NC(=O)CN)C(=O)N2)NC(=O)[C@H](CCCNC(=N)N)NC(=O)[C@@H]2CCCN2C(=O)[C@H](CC(=O)O)NC1=O [Iq, L-norvaline, glycyl-L-cysteinyl-L-alanyl-L-threonyl-L-α-aspartyl-L-prolyl-L-arginyl-L-cysteinyl-N5-(aminocarbonyl)-L-ornithyl-L-tryptophyl-L-glutaminyl-cyclic (2→8)-disulfide-cyclic 3^3,12^5-(1H-1,2,3-triazole-4,1-diyl)] (H-GC[Pra]TDPRC[Cit]WQ[Orn(N3)]-OH; disulfide 2-8; triazole 3-12) | 69 ± 2 nM | > 0.3 µM | approximately 10 fold | greater than 100 fold
7 | C[C@@H](O)[C@@H]1NC(=O)[C@@H]2Cc3cn(nn3)CCC[C@@H](C(=O)N(C)[C@@H](Cc3ccc(O)cc3)C(=O)O)NC(=O)[C@H](CCC(N)=O)NC(=O)[C@H](Cc3c[nH]c4ccccc34)NC(=O)[C@H](CCCNC(N)=O)NC(=O)[C@H](CSSC[C@H](NC(=O)CN)C(=O)N2)NC(=O)[C@H](CCCNC(=N)N)NC(=O)[C@@H]2CCCN2C(=O)[C@H](CC(=O)O)NC1=O [Ir, L-tyrosine, glycyl-L-cysteinyl-L-alanyl-L-threonyl-L-α-aspartyl-L-prolyl-L-arginyl-L-cysteinyl-N5-(aminocarbonyl)-L-ornithyl-L-tryptophyl-L-glutaminyl-L-norvalyl-N-methyl-cyclic (2→8)-disulfide-cyclic 3^3,12^5-(1H-1,2,3-triazole-4,1-diyl)] (H-GC[Pra]TDPRC[Cit]WQ[Orn(N3)][NMeY]-OH; disulfide 2-8; triazole 3-12) | 31 ± 0.7 nM | ~0.1 µM |  | 
8 | C[C@@H](O)[C@@H]1NC(=O)[C@@H]2Cc3cn(nn3)CCC[C@@H](C(=O)N[C@H](CC(=O)O)c3ccc(O)cc3)NC(=O)[C@H](CCC(N)=O)NC(=O)[C@H](Cc3c[nH]c4ccccc34)NC(=O)[C@H](CCCNC(N)=O)NC(=O)[C@H](CSSC[C@H](NC(=O)CN)C(=O)N2)NC(=O)[C@H](CCCNC(=N)N)NC(=O)[C@@H]2CCCN2C(=O)[C@H](CC(=O)O)NC1=O [Iu, (R)-3-(amino)-3-(4-hydroxyphenyl)propionic acid, glycyl-L-cysteinyl-L-alanyl-L-threonyl-L-α-aspartyl-L-prolyl-L-arginyl-L-cysteinyl-N5-(aminocarbonyl)-L-ornithyl-L-tryptophyl-L-glutaminyl-L-norvalyl-cyclic (2→8)-disulfide-cyclic 3^3,12^5-(1H-1,2,3-triazole-4,1-diyl)] (H-GC[Pra]TDPRC[Cit]WQ[Orn(N3)]-X1; disulfide 2-8; triazole 3-12) | < 30 nM | ~0.1 µM |  | 
9 | C[C@@H](O)[C@@H]1NC(=O)[C@@H]2Cc3cn(nn3)CCC[C@@H](C(=O)N(C)[C@@H](CCCNC(=N)N)C(=O)O)NC(=O)[C@H](CCC(N)=O)NC(=O)[C@H](Cc3c[nH]c4ccccc34)NC(=O)[C@H](CCCNC(N)=O)NC(=O)[C@H](CSSC[C@H](NC(=O)CN)C(=O)N2)NC(=O)[C@H](CCCNC(=N)N)NC(=O)[C@@H]2CCCN2C(=O)[C@H](CC(=O)O)NC1=O [Iv, L-arginine, glycyl-L-cysteinyl-L-alanyl-L-threonyl-L-α-aspartyl-L-prolyl-L-arginyl-L-cysteinyl-N5-(aminocarbonyl)-L-ornithyl-L-tryptophyl-L-glutaminyl-L-norvalyl-N-methyl-cyclic (2→8)-disulfide-cyclic 3^3,12^5-(1H-1,2,3-triazole-4,1-diyl)] (H-GC[Pra]TDPRC[Cit]WQ[Orn(N3)][NMeR]-OH; disulfide 2-8; triazole 3-12) | < 30 nM | ~0.1 µM |  | 
10 | C[C@@H](O)[C@@H]1NC(=O)[C@@H]2CCC(=O)NCCCC[C@@H](C(=O)N[C@@H](Cc3ccc(O)cc3)C(N)=O)NC(=O)[C@H](CCC(N)=O)NC(=O)[C@H](Cc3ccc(O)c(I)c3)NC(=O)[C@H](CCCNC(N)=O)NC(=O)[C@H](CSSC[C@H](NC(=O)CN)C(=O)N2)NC(=O)[C@H](CCCNC(=N)N)NC(=O)[C@@H]2CCCN2C(=O)[C@H](CC(=O)O)NC1=O [Iw, L-tyrosinamide, glycyl-L-cysteinyl-L-glutamyl-L-threonyl-L-α-aspartyl-L-prolyl-L-arginyl-L-cysteinyl-N5-(aminocarbonyl)-L-ornithyl-L-3-iodotyrosyl-L-glutaminyl-L-lysyl-cyclic (2→8)-disulfide-cyclic-(3→12)-lactam] (H-GCETDPRC[Cit][Tyr(3-I)]QKY-NH2; disulfide 2-8; lactam 3-12) | 36 ± 9 nM | > 0.3 µM |  | 
11 | C[C@@H](O)[C@@H]1NC(=O)[C@@H]2CCCCNC(=O)CC[C@@H](C(=O)N[C@@H](Cc3ccc(O)cc3)C(N)=O)NC(=O)[C@H](CCC(N)=O)NC(=O)[C@H](Cc3ccc(O)c(I)c3)NC(=O)[C@H](CCCNC(N)=O)NC(=O)[C@H](CSSC[C@H](NC(=O)CN)C(=O)N2)NC(=O)[C@H](CCCNC(=N)N)NC(=O)[C@@H]2CCCN2C(=O)[C@H](CC(=O)O)NC1=O [Ix] (H-GCKTDPRC[Cit][Tyr(3-I)]QEY-NH2; disulfide 2-8; lactam 3-12) | 21 ± 1.4 nM | 0.123 ± 0.022 µM |  | 
